PubChem BioAssay (NCI)
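Cells were grown in 96-well plates and exposed to each compound for 48 hours at five concentrations; endpoints were interpolated linearly between bracketing concentrations, or set to the highest concentration if not reached. Here, GI50 denotes the concentration required for 50% inhibition of growth. TGI: concentration producing complete growth inhibition.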

What was measured:
Assay in all cases: inhibition of tumour cell growth, NCI panel, 48 h
[1] = tested on: HCC-2998 colon
[2] = tested on: OVCAR-3 ovarian
[3] = tested on: SF-295 CNS
[4] = tested on: A498 renal
[5] = tested on: OVCAR-8 ovarian
[6] = tested on: OVCAR-4 ovarian
[7] = tested on: NCI-H522 lung
[8] = tested on: MALME-3M melanoma
[9] = tested on: TK-10 renal
[10] = tested on: COLO 205 colon

Row | Structure (SMILES) | GI50 [1] [µM] | TGI [1] [µM] | GI50 [2] [µM] | TGI [2] [µM] | GI50 [3] [µM] | TGI [3] [µM] | GI50 [4] [µM] | TGI [4] [µM] | GI50 [5] [µM] | TGI [5] [µM] | GI50 [6] [µM] | TGI [6] [µM] | GI50 [7] [µM] | TGI [7] [µM] | GI50 [8] [µM] | TGI [8] [µM] | GI50 [9] [µM] | TGI [9] [µM] | GI50 [10] [µM] | TGI [10] [µM]
1 | CN(C)C(=O)O[C@H]1CN[C@H](C#Cc2cc3ncnc(Nc4ccc(OCc5cccc(F)c5)c(Cl)c4)c3s2)C1 | 11.3 | > 25 | 4.2 | 16.3 | > 20 | > 25 | 4.19 | 23.3 | 7.58 | > 25 | 20.4 | > 25 | 0.977 | > 12.7 | 5.15 | 14.5 | 0.765 | > 17.4 | > 18.6 | > 25
2 | Cc1c(C(=O)O)oc2ccc([N+](=O)[O-])cc12 |  | > 100 |  | > 100 |  | > 100 |  | > 100 |  | > 100 |  | > 100 |  | > 100 |  | > 100 |  | > 100 |  | > 100
3 | CCOC(=O)/C(C#N)=C\C=C(/Cl)c1ccc(Cl)cc1 | 16.1 | 31.1 | 7.76 | 28.4 | 19 | 38.1 | 32.3 | > 79.3 | 19.4 | 42.1 | 27.8 | > 76.4 | 14 | 39.9 | 18.6 | 40.5 | 16.2 | 35.2 | 19.1 | > 48
4 | C=C1C(=O)O[C@H]2[C@H]1CC/C(COC(=O)NCC(C)c1ccc(CC(C)C)cc1)=C\CC[C@@]1(C)O[C@@H]21 (some centres not stated) | 2.17 | 6.72 | 0.625 | 1.27 | 4.44 | 8.69 | 4.36 | 8.68 | 1.94 | 6.87 | 2.31 | 6.59 | 0.661 | 1.77 | 0.926 | 2.89 | 3.34 | 7.23 | 1.3 | 5.3
5 | O=C1OCC2=C1C(c1ccccc1)c1cc3c(cc1N2CCO)OCO3 (configuration not stated) | 9.91 | > 50 | 1.15 | 2.6 | 1.25 | 3.53 | 3.38 | > 50 | 12.1 | > 50 | 4.38 | > 50 | 1.09 | > 50 | > 50 | > 50 | 32.7 | > 50 | 2.71 | 17.1
6 | CCCCN(CC)CC(C(C)=O)c1c(O)c2ccccc2oc1=O (configuration not stated) |  | > 100 |  | > 100 |  | > 100 |  | > 100 |  | > 100 |  | > 100 |  | > 100 |  | > 100 |  | > 100 |  | > 100
7 | CN1/C(=C\C=C\C2=[N+](C)c3ccccc3C2(C)C)C(C)(C)c2ccccc21 | 0.041 | 1.25 | 0.0514 | 0.948 | 0.0336 | 1.27 | 0.0556 | 0.979 | 0.101 | 7.52 | 0.0922 | 5.21 | 0.0782 | 10.2 | 0.0936 | 0.818 | 0.56 | 14.8 | 0.0457 | 0.257
8 | O=[N+]([O-])c1ccc(-c2ccc(-c3csc(Nc4ccccc4)n3)o2)cc1 |  | 56.5 |  | 33.7 |  | > 86.4 |  | 34.5 |  | 40.7 |  | 32 |  | 32 |  | 32.1 |  | 33.3 |  | 58.2
9 | Cc1cc(I)cc(CN(C)CCCN2CCCC2)c1O | 19.1 | 35.6 | 23.2 | > 88.2 | 13.7 | 28.4 | 14.8 | 33.6 | 45.3 | > 100 | 34 | > 90.1 | 20.7 | 45.9 | 16.6 | 33.1 | 17 | 36 | 15.6 | 33.1
10 | COc1ccc2c(c1)/C(=C/c1cc(OC)c(OC)c(OC)c1)C(=O)N2 | 0.586 | 16 |  | 0.0463 | 0.104 | 0.602 | 0.146 | 0.848 | 1.28 | > 100 |  | > 100 | 0.25 |  | 0.556 | > 100 | 1.19 | > 70.6 | 0.517 | 3.03
11 | c1ccc2[nH]c(-c3ccc(Nc4nc(N5CCCCC5)nc(N5CCOCC5)n4)cc3)nc2c1 | 3.74 | > 100 | 2.4 | 6.19 | 1.85 | 4.6 | 1.77 | 4.18 | 3.24 | 14.3 | 3.98 | 25.4 | 2.36 | 6.22 | 1.87 | 3.57 | 3.21 | 9.26 | 1.86 | 3.92
12 | C/C(=N/NC(=O)C[N+](C)(C)C)C(CN(C)C)C(=O)Nc1ccccc1 (configuration not stated) |  | > 100 |  | > 100 |  | > 100 |  | > 100 |  | > 100 |  | > 100 |  | > 100 |  | > 100 |  | > 100 |  | > 100
13 | CCNC(=O)c1noc(-c2cc(C(C)C)c(O)cc2O)c1-c1ccc(CN2CCOCC2)cc1 | 0.0267 | 1.05 | 0.0529 | 19.1 | 0.0287 | 11.2 | 0.0418 | 17.5 | 0.0423 | 28.9 | 10.9 | > 100 | 0.0333 | 13.6 | 0.025 | 12.1 | 0.0233 | 14.8 | 0.0787 | 5.64
14 | COc1ccc2[nH]c3c(c2c1)[C@H](C)C[C@@H]1C(=O)N(c2ccccc2)C(=O)[C@H]31 |  | > 100 |  | 56.1 |  | 70.9 |  | 64.9 |  | 37.8 |  | 45.2 |  | 42.1 |  | 79.8 |  | > 100 |  | > 100
15 | CCOC(=O)c1cc2c3c(c(O)c(OC)c2s1)N(C(=O)c1cc2c4c(c(O)c(OC)c2s1)N(C(C)=O)CC4)CC3 |  | > 100 |  | > 100 |  | > 100 |  | > 100 |  | > 100 |  | > 100 |  | > 100 |  | > 100 |  | > 100 |  | > 100
